In ChEMBL document CHEMBL4840353, “Investigation on the solid-phase synthesis of silybin prodrugs and their timed-release” (Bioorg Med Chem, 2021):
In brackets after ≈: the same amount, converted by molar mass.

What was measured:
[1] = Aqueous solubility of the compound; assay type: physicochemical; conditions: buffer
[2] = Antioxidant activity assessed as DPPH radical scavenging activity measured for 60 mins by spectrophotometric analysis; assay type: functional
[3] = Stability in simulated intestinal fluid at pH 6.8 assessed as half life at 1 mM by HPLC analysis; assay type: ADME
[4] = Stability in simulated gastric fluid at pH 1.1 assessed as drug degradation at 1 mM measured after 24 hrs by HPLC analysis; assay type: ADME; conditions: read-out: Drug degradation
[5] = Stability in alkaline phosphatase buffer at pH 7.4 assessed as drug degradation at 1 mM measured after 48 hrs by HPLC analysis; assay type: ADME; conditions: read-out: Drug degradation
[6] = Prodrug conversion assessed as RNase (unknown origin) -mediated drug release by measuring half life in imidazole buffer at 1 mM by UV/Vis detector based HPLC analysis; assay type: ADME; conditions: human, 1000 µM
[7] = Prodrug conversion assessed as RNase (unknown origin)-mediated drug release by measuring half life in simulated intestinal fluid at 1 mM by UV/Vis detector based HPLC analysis; assay type: ADME; conditions: human, simulated gi fluid, 1000 µM
[8] = system: SH-SY5Y; assay: Cytotoxicity against human differentiated SH-SY5Y cells assessed as reduction in cell viability at 2 to 50 uM measured after 48 hrs by MTT assay; assay type: cell-based; conditions: dose 2-50 µM

SMILES	solubility [1]	EC50 [2] [µM]	half-life at 1000 µM [3] [h]	degraded at 24 h, 1000 µM [4] [%]	degraded at 48 h, 1000 µM [5] [%]	t1/2 [6] [h]	t1/2 [7] [h]	Activity [8]	solubility ([1]; read-out: solubility) [µM]
COc1cc(C2Oc3cc([C@H]4Oc5cc(O)cc(O)c5C(=O)[C@@H]4O)ccc3OC2COP(=O)(O)O[C@H]2[C@@H](O)[C@H](n3cnc4c(N)ncnc43)O[C@@H]2CO)ccc1O (stereo not given in full)	Soluble	620	> 24	< 5	< 2	> 48	> 48	Non-Toxic	–
COc1cc([C@H]2Oc3cc([C@H]4Oc5cc(O)cc(O)c5C(=O)[C@@H]4O)ccc3O[C@@H]2COP(=O)(O)O[C@H]2[C@@H](O)[C@H](n3ccc(=O)[nH]c3=O)O[C@@H]2CO)ccc1O	Soluble	570	> 24	27	< 2	1.45	13	Non-Toxic	–
COc1cc([C@@H]2Oc3cc([C@H]4Oc5cc(O)cc(O)c5C(=O)[C@@H]4O)ccc3O[C@H]2COP(=O)(O)O[C@H]2[C@@H](O)[C@H](n3cnc4c(N)ncnc43)O[C@@H]2CO)ccc1O	Soluble	580	> 24	< 5	< 2	> 48	> 48	Non-Toxic	–
COc1cc([C@@H]2Oc3cc([C@H]4Oc5cc(O)cc(O)c5C(=O)[C@@H]4O)ccc3O[C@H]2COP(=O)(O)O[C@H]2[C@@H](O)[C@H](n3ccc(=O)[nH]c3=O)O[C@@H]2CO)ccc1O	Soluble	530	> 24	27	< 2	0.833	11	Non-Toxic	–
COc1cc([C@H]2Oc3cc([C@H]4Oc5cc(O)cc(O)c5C(=O)[C@@H]4O)ccc3O[C@@H]2COP(=O)(O)O[C@H]2[C@@H](O)[C@H](n3cnc4c(N)ncnc43)O[C@@H]2CO)ccc1O	Soluble	630	> 24	< 5	< 2	> 48	> 48	Non-Toxic	–
COc1cc(C2Oc3cc([C@H]4Oc5cc(O)cc(O)c5C(=O)[C@@H]4O)ccc3OC2COP(=O)(O)O[C@H]2[C@@H](O)[C@H](n3ccc(=O)[nH]c3=O)O[C@@H]2CO)ccc1O (stereo not given in full)	Soluble	490	> 24	27	< 2	1.67	20	Non-Toxic	–
COc1cc(C2Oc3cc([C@H]4Oc5cc(O)cc(O)c5C(=O)[C@@H]4O)ccc3OC2CO)ccc1O (stereo not given in full) [SILIBININ]	–	620	–	–	–	–	–	–	1 (≈ 0.482 µg/mL)
COc1cc([C@H]2Oc3cc([C@H]4Oc5cc(O)cc(O)c5C(=O)[C@@H]4O)ccc3O[C@@H]2CO)ccc1O [SILYBIN A]	–	360	–	–	–	–	–	Non-Toxic	–
COc1cc([C@@H]2Oc3cc([C@H]4Oc5cc(O)cc(O)c5C(=O)[C@@H]4O)ccc3O[C@H]2CO)ccc1O [SILYBIN B]	–	580	–	–	–	–	–	Non-Toxic	–
Cc1c(C)c2c(c(C)c1O)CCC(C)(C(=O)O)O2 (stereo not given) [TROLOX]	–	28	–	–	–	–	–	–	–
